This experiment concerns the target T1, PE-labeled human PD-L1-Ig binding to Jurkat cell line over-expressing human PD-1 (Jurkat-PD-1) (Homo sapiens, UniProt Q15116).
T1 construct: expressed in transfected cells; host or cells: Jurkat
Kind of experiment: Jurkat-PD-1 Cell Binding High-Content Screening Assay (CBA): Method 1. The settings on record: Jurkat-hPD-1 cells, PE-labeled PD-L1-Ig 20 nM final; read-out: Jurkat HPDL1 PD1 IC50 (uM) (Method 1).

Broadly, the IC50 is the concentration that inhibits the measured activity by half.

Structures are written as SMILES. Bridge positions count the residues as written; N and C are the ends. Square brackets hold non-standard residues; d marks the D form. Peptide text beside a SMILES is read from it. * marks the point of attachment. ξ: configuration not given here. Phe(3-OCH2COOH) = N[C@@H](Cc1cccc(OCC(=O)O)c1)C(=O)O; Phe(4-COOH) = N[C@@H](Cc1ccc(C(=O)O)cc1)C(=O)O; Bip = N[C@@H](Cc1ccc(-c2ccccc2)cc1)C(=O)O; Phe(3-Me) = Cc1cccc(C[C@H](N)C(=O)O)c1; Val(3-OH) = CC(C)(O)[C@H](N)C(=O)O; 2Pal = N[C@@H](Cc1ccccn1)C(=O)O; 4Pal = N[C@@H](Cc1ccncc1)C(=O)O; Cha = N[C@@H](CC1CCCCC1)C(=O)O; Cit = NC(=O)NCCC[C@H](N)C(=O)O; Ile(3ξ) = CCC(C)[C@H](N)C(=O)O; Thr(3ξ) = CC(O)[C@H](N)C(=O)O; Carboxymethyl = O=C(O)C*; NMeA = CN[C@@H](C)C(=O)O; Orn = NCCC[C@H](N)C(=O)O; Dab = NCC[C@H](N)C(=O)O; Dap = NC[C@H](N)C(=O)O; Aib = CC(C)(N)C(=O)O; NH(CH2)3NH2 = NCCCN*

T1 sequence (Q15116 25-288): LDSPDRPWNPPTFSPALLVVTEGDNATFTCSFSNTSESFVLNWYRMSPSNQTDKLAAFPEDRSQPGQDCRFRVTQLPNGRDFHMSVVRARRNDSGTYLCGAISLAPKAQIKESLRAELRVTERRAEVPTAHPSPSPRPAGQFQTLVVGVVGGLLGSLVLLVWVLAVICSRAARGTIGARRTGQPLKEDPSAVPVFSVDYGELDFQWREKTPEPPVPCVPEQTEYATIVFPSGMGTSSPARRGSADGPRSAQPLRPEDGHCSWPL

As to `CC(C)C[C@@H]1NC(=O)[C@H](CCN)NC(=O)[C@@H](CC(C)C)NC(=O)[C@H](C)N(C)C(=O)[C@H](CCCNC(N)=O)NC(=O)[C@H](Cc2ccc(-c3ccccc3)cc2)NC(=O)[C@H](C(C)C)NC(=O)[C@H](Cc2c[nH]c3ccccc23)NC(=O)[C@H](CC(=O)O)NC(=O)[C@H](Cc2ccc(O)cc2)NC(=O)[C@H](Cc2ccccn2)NC(=O)CSC[C@@H](C(=O)N[C@@H](C)C(N)=O)NC(=O)[C@H]([C@@H](C)O)NC(=O)[C@H](C(C)C)NC1=O` [Compound 1327] ({CH2CO}-[2Pal]YDWV[Bip][Cit][NMeA][dL][Dab]LVTCA-NH2; thioether N-14), the IC50 amounted to 0.08 µM. Regarding `Cc1cccc(C[C@@H]2NC(=O)[C@H](CC(=O)O)NC(=O)[C@H](Cc3ccc(OCC(=O)O)cc3)NC(=O)[C@H](C(C)O)NC(=O)CSC[C@@H](C(=O)N[C@@H](CCN)C(N)=O)NC(=O)[C@H](CO)NC(=O)[C@H](C(C)(C)O)NC(=O)[C@H](CC3CCCCC3)NC(=O)[C@H](CCN)NC(=O)[C@@H](CC(C)C)NC(=O)[C@H](C)N(C)C(=O)[C@H](Cc3ccc(C(=O)O)cc3)NC(=O)[C@H](Cc3ccc(-c4ccccc4)cc3)NC(=O)[C@H](Cc3ccc(C(=O)O)cc3)NC2=O)c1` (stereo partly drawn) [Compound 2152] ({CH2CO}-[Thr(3ξ)]Y(Carboxymethyl)D[Phe(3-Me)][Phe(4-COOH)][Bip][Phe(4-COOH)][NMeA][dL][Dab][Cha][Val(3-OH)]SC[Dab]-NH2; thioether N-14), the IC50 is 0.01 µM. `CCC(C)[C@@H]1NC(=O)[C@H](Cc2ccc(-c3ccccc3)cc2)NC(=O)[C@H](CC(C)C)NC(=O)[C@H](Cc2c[nH]c3ccccc23)NC(=O)[C@H](CC(=O)O)NC(=O)[C@H](Cc2ccc(C(=O)O)cc2)NC(=O)[C@H](Cc2ccc(OCC(=O)O)cc2)NC(=O)CSC[C@@H](C(=O)N[C@@H](CCN)C(N)=O)NC(=O)[C@H]([C@@H](C)O)NC(=O)[C@H](C(C)C)NC(=O)[C@H](CC2CCCCC2)NC(=O)[C@H](CCN)NC(=O)[C@@H](CC(C)C)NC(=O)[C@H](C)N(C)C1=O` (stereo partly drawn) [Compound 1926] ({CH2CO}-Y(Carboxymethyl)[Phe(4-COOH)]DWL[Bip][Ile(3ξ)][NMeA][dL][Dab][Cha]VTC[Dab]-NH2; thioether N-14): the IC50 turned out to be 0.01 µM. Consider `CC(C)C[C@@H]1NC(=O)[C@H](Cc2c[nH]c3ccccc23)NC(=O)[C@H](CC(=O)O)NC(=O)[C@H](Cc2ccc(O)cc2)NC(=O)[C@H](Cc2ccccc2)NC(=O)CSC[C@@H](C(=O)N[C@@H](C)C(N)=O)NC(=O)[C@H](CO)NC(=O)[C@H](CCCN)NC(=O)[C@H](CC(C)C)NC(=O)[C@H](CC(N)=O)NC(=O)[C@@H](CC(C)C)NC(=O)[C@H](C)N(C)C(=O)[C@H](C(C)C)NC(=O)[C@H](Cc2ccc(-c3ccccc3)cc2)NC1=O` [Compound 1537] ({CH2CO}-FYDWL[Bip]V[NMeA][dL]NL[Orn]SCA-NH2; thioether N-14), for which the IC50 stood at 0.02 µM. To `CC(C)C[C@@H]1NC(=O)[C@H](CCCNC(=N)N)NC(=O)C(C)(C)NC(=O)[C@H](C)N(C)C(=O)[C@H](CCCNC(=N)N)NC(=O)[C@H](Cc2ccc(-c3ccccc3)cc2)NC(=O)[C@H](C(C)C)NC(=O)[C@H](Cc2c[nH]c3ccccc23)NC(=O)[C@H](CC(=O)O)NC(=O)[C@H](Cc2ccc(O)cc2)NC(=O)[C@H](Cc2ccccc2)NC(=O)CSC[C@@H](C(=O)NCC(N)=O)NC(=O)[C@H](CO)NC(=O)[C@H](C(C)C)NC1=O` [Compound 1013] ({CH2CO}-FYDWV[Bip]R[NMeA][Aib]RLVSCG-NH2; thioether N-14) belongs 0.16 µM; to `CC[C@H](C)[C@@H]1NC(=O)[C@H](Cc2ccc(-c3ccccc3)cc2)NC(=O)[C@H](C(C)(C)O)NC(=O)[C@H](Cc2cccc(C)c2)NC(=O)[C@H](CC(=O)O)NC(=O)[C@H](Cc2ccc(O)cc2)NC(=O)[C@H](CC(N)=O)NC(=O)CSC[C@@H](C(=O)N[C@@H](CCN)C(N)=O)NC(=O)[C@H]([C@@H](C)O)NC(=O)[C@H](C(C)C)NC(=O)[C@H](CC2CCCCC2)NC(=O)[C@H](CCN)NC(=O)[C@@H](CC(C)C)NC(=O)[C@H](C)N(C)C1=O` [Compound 1691] ({CH2CO}-NYD[Phe(3-Me)][Val(3-OH)][Bip]I[NMeA][dL][Dab][Cha]VTC[Dab]-NH2; thioether N-14), 0.02 µM; to `CCC(C)[C@@H]1NC(=O)[C@H](Cc2ccc(-c3ccccc3)cc2)NC(=O)[C@H](C(C)C)NC(=O)[C@H](Cc2c[nH]c3ccccc23)NC(=O)[C@H](CC(=O)O)NC(=O)[C@H](Cc2ccc(O)cc2)NC(=O)[C@H](C(C)O)NC(=O)CSC[C@@H](C(=O)NCCCN)NC(=O)[C@H](C(C)O)NC(=O)[C@H](C(C)(C)O)NC(=O)[C@H](CC2CCCCC2)NC(=O)[C@H](CC(N)=O)NC(=O)[C@@H](CC(C)C)NC(=O)[C@H](C)N(C)C1=O` (stereo partly drawn) [Compound 2266] ({CH2CO}-[Thr(3ξ)]YDWV[Bip][Ile(3ξ)][NMeA][dL]N[Cha][Val(3-OH)][Thr(3ξ)]C-{NH(CH2)3NH2}; thioether N-14), 0.15 µM. Consider `CC(C)C[C@@H]1NC(=O)[C@H](CCCNC(=N)N)NC(=O)[C@@H](C)NC(=O)[C@H](C)N(C)C(=O)[C@H](C(C)C)NC(=O)[C@H](Cc2ccc(-c3ccccc3)cc2)NC(=O)[C@H](C(C)C)NC(=O)[C@H](Cc2c[nH]c3ccccc23)NC(=O)[C@H](CC(=O)O)NC(=O)[C@H](Cc2ccc(O)cc2)NC(=O)[C@H](Cc2ccccc2)NC(=O)CSC[C@@H](C(=O)N[C@@H](C)C(N)=O)NC(=O)[C@H](CO)NC(=O)[C@H](C(C)C)NC1=O` [Compound 1779] ({CH2CO}-FYDWV[Bip]V[NMeA][dA]RLVSCA-NH2; thioether N-14), for which the IC50 was found to be 0.07 µM. With `CC(C)C[C@@H]1NC(=O)[C@H](CCN)NC(=O)[C@@H](CC(C)C)NC(=O)[C@H](C)N(C)C(=O)[C@H](CCCNC(=N)N)NC(=O)[C@H](Cc2ccc(-c3ccccc3)cc2)NC(=O)[C@H](C(C)C)NC(=O)[C@H](Cc2c[nH]c3ccccc23)NC(=O)[C@H](CC(=O)O)NC(=O)[C@H](Cc2cccc(OCC(=O)O)c2)NC(=O)[C@H](CC(N)=O)NC(=O)CSC[C@@H](C(=O)N[C@@H](C)C(N)=O)NC(=O)[C@H]([C@@H](C)O)NC(=O)[C@H](C(C)C)NC1=O` [Compound 1372] ({CH2CO}-N[Phe(3-OCH2COOH)]DWV[Bip]R[NMeA][dL][Dab]LVTCA-NH2; thioether N-14), the IC50 came out at 0.14 µM. With `Cc1cccc(C[C@@H]2NC(=O)[C@H](CC(=O)O)NC(=O)[C@H](Cc3ccc(O)cc3)NC(=O)[C@H](Cc3ccccc3)NC(=O)CSC[C@@H](C(=O)NCC(N)=O)NC(=O)[C@H](CO)NC(=O)[C@H](C(C)C)NC(=O)[C@H](CC(C)C)NC(=O)[C@H](CC(N)=O)NC(=O)[C@@H](CC(C)C)NC(=O)[C@H](C)N(C)C(=O)[C@H](C(C)C)NC(=O)[C@H](Cc3ccc(-c4ccccc4)cc3)NC(=O)[C@H](CC(C)C)NC2=O)c1` [Compound 1517] ({CH2CO}-FYD[Phe(3-Me)]L[Bip]V[NMeA][dL]NLVSCG-NH2; thioether N-14), the IC50 turned out to be 0.02 µM. To `CC(C)C[C@@H]1NC(=O)[C@H](CCN)NC(=O)[C@@H](CC(C)C)NC(=O)[C@H](C)N(C)C(=O)[C@H](CCCNC(=N)N)NC(=O)[C@H](Cc2ccc(-c3ccccc3)cc2)NC(=O)[C@H](C(C)C)NC(=O)[C@H](Cc2c[nH]c3ccccc23)NC(=O)[C@H](CC(=O)O)NC(=O)[C@H](Cc2ccc(O)cc2)NC(=O)[C@H](Cc2cnc[nH]2)NC(=O)CSC[C@@H](C(=O)N[C@@H](C)C(N)=O)NC(=O)[C@H]([C@@H](C)O)NC(=O)[C@H](C(C)C)NC1=O` [Compound 1051] ({CH2CO}-HYDWV[Bip]R[NMeA][dL][Dab]LVTCA-NH2; thioether N-14) belongs 0.15 µM; to `CC(C)C[C@@H]1NC(=O)[C@H](CCCN)NC(=O)[C@@H](CC(C)C)NC(=O)[C@H](C)N(C)C(=O)[C@H](CCCNC(=N)N)NC(=O)[C@H](Cc2ccc(-c3ccccc3)cc2)NC(=O)[C@H](C(C)C)NC(=O)[C@H](Cc2c[nH]c3ccccc23)NC(=O)[C@H](CC(=O)O)NC(=O)[C@H](Cc2cnc[nH]2)NC(=O)[C@H](CC(N)=O)NC(=O)CSC[C@@H](C(=O)N[C@@H](C)C(N)=O)NC(=O)[C@H]([C@@H](C)O)NC(=O)[C@H](C(C)C)NC1=O` [Compound 1131] ({CH2CO}-NHDWV[Bip]R[NMeA][dL][Orn]LVTCA-NH2; thioether N-14), 0.28 µM; to `CCC(C)[C@@H]1NC(=O)[C@H](Cc2ccc(-c3ccccc3)cc2)NC(=O)[C@H](CC(C)C)NC(=O)[C@H](Cc2c[nH]c3ccccc23)NC(=O)[C@H](CC(=O)O)NC(=O)[C@H](Cc2ccc(C(=O)O)cc2)NC(=O)[C@H](Cc2ccc(OCC(=O)O)cc2)NC(=O)CSC[C@@H](C(=O)N[C@@H](CO)C(N)=O)NC(=O)[C@H](CCC(N)=O)NC(=O)[C@H](C(C)C)NC(=O)[C@H](CC2CCCCC2)NC(=O)[C@H](CCN)NC(=O)[C@@H](CC(C)C)NC(=O)[C@H](C)N(C)C1=O` (stereo partly drawn) [Compound 1931] ({CH2CO}-Y(Carboxymethyl)[Phe(4-COOH)]DWL[Bip][Ile(3ξ)][NMeA][dL][Dab][Cha]VQCS-NH2; thioether N-14), 0.02 µM. The result for `Cc1cccc(C[C@@H]2NC(=O)[C@H](CC(=O)O)NC(=O)[C@H](Cc3ccc(OCC(=O)O)cc3)NC(=O)[C@H](Cc3ccncc3)NC(=O)CSC[C@@H](C(=O)N[C@@H](CCN)C(N)=O)NC(=O)[C@H](CC(N)=O)NC(=O)[C@H](C(C)(C)O)NC(=O)[C@H](CC3CCCCC3)NC(=O)[C@H](CCN)NC(=O)[C@@H](CC(C)C)NC(=O)[C@H](C)N(C)C(=O)[C@H](Cc3ccc(OCC(=O)O)cc3)NC(=O)[C@H](Cc3ccc(-c4ccccc4)cc3)NC(=O)[C@H](Cc3ccc(OCC(=O)O)cc3)NC2=O)c1` [Compound 2191] ({CH2CO}-[4Pal]Y(Carboxymethyl)D[Phe(3-Me)]Y(Carboxymethyl)[Bip]Y(Carboxymethyl)[NMeA][dL][Dab][Cha][Val(3-OH)]NC[Dab]-NH2; thioether N-14) reads 0.03 µM. To `CC(C)C[C@@H]1NC(=O)[C@H](CCN)NC(=O)[C@@H](CC(C)C)NC(=O)[C@H](C)N(C)C(=O)[C@H](CCCNC(N)=O)NC(=O)[C@H](Cc2ccc(-c3ccccc3)cc2)NC(=O)[C@H](C(C)C)NC(=O)[C@H](Cc2c[nH]c3ccccc23)NC(=O)[C@H](CC(=O)O)NC(=O)[C@H](Cc2ccncc2)NC(=O)[C@H](CN)NC(=O)CSC[C@@H](C(=O)N[C@@H](C)C(N)=O)NC(=O)[C@H]([C@@H](C)O)NC(=O)[C@H](C(C)C)NC1=O` [Compound 1545] ({CH2CO}-[Dap][4Pal]DWV[Bip][Cit][NMeA][dL][Dab]LVTCA-NH2; thioether N-14) belongs 0.04 µM.
